Read-outs that look alike come from different tables or passages of the source.
Tests used:
Format in all cases: in vivo
[1] = system: male Royal Hart mice (rotarod time); test: Test A (Rotarod Test), muscle relaxant; details: for ED50: Mus musculus, tested 30 and 60 minutes after administration, read-out: ED50 (dose which decreases the rotarod time by 50%); for percent change in rotarod time: 200 mg./kg. p.o., vs control
From the text: (§1) The compounds of Formula I and the pharmaceutically acceptable acid addition salts thereof are useful for the treatment of inflammation in animals (e.g., mammals) as indicated by Test E and, with the exception of those wherein R2 is 4-NR5 R6 and R3 and R4 are hydrogen, as muscle relaxants in animals (e.g., mammals) as indicated by Tests A, B, C and D. The preferred compounds of Formula I and pharmaceutically acceptable acid addition salts set forth above are those that are preferred for muscle relaxation.
Test A (Rotarod Test): A modification of the rotarod method of Dunham et al., J. Am. Pharm. Assoc. 46, 208 (1957), is used. Groups of 5 male Royal Hart mice weighing 20-25 g. are trained to ride a rod revolving at 15 r.p.m. covered with corrugated paper for 60-90 seconds. Ability of the mice to remain on the rod is tested again at 30 minutes and 60 minutes after intraperitoneal or oral administration of the drug (the compound of Formula I in free base or pharmaceutically acceptable acid addition salt form) at a dose of 20-400 mg./kg. body weight or saline. Rotarod times for control and treated groups are compared to determine the percent change. The ED50 is the dose of the drug which decreases the rotarod time by 50% or is calculated by interpolation.

[2] = system: mono (patellar)--and poly (flexor)--synaptic gross spinal reflexes; test: Test B (Gross Spinal Reflex), muscle relaxant; details: Felis catus, iv, cats, alpha chloralose anesthesia, progressively accumulating doses; read-out: ED50 (dose that reduces the response by 50%)
From the text: as §1
Test B (Gross Spinal Reflex): Male cats weighing 2.5-3.0 kg. are utilized to study the effects of drugs on the mono (patellar)--and poly (flexor)--synaptic gross spinal reflexes. A Grass Model 7 polygraph with two ft. 03 force displacement transducers and two low level D.C. pre-amplifiers is utilized to measure the flexor and patellar responses.
Anesthesia is induced with ether, followed by an i.v. injection of alpha chloralose dissolved in warm distilled water at a dose of 70 mg./kg. body weight. […]
A drill bit pin is inserted just behind the lateral epicondyle of the left femur. […] Contraction of the left leg is measured via a force displacement transducer. […]
A series of control responses is recorded prior to administration of the drug (compound of Formula I in free base or pharmaceutically acceptable acid addition salt form). […]

linguomandibular reflex = test: Test D (Linguomandibular Reflex (LMR)), muscle relaxant; details: Felis catus, iv, cats, alpha chloralose anesthesia; read-out: ED50 (dose that reduces the response by 50%)
From the text: as §1
Test D (Linguomandibular Reflex (LMR)): The linguomandibular reflex is a polysynaptic reflex involving interneurons within the brain stem. Inhibition of the linguomandibular reflex has been correlated with central muscle relaxant activity. See Bhargava et al., Brit. J. Pharmacol. 25, 74-80 (1965).
Male cats weighing 2.0-3.0 kg. are utilized to study the effect of a drug on the linguomandibular reflex. […]
The head of the cat is rigidly fixed in a Kopf stereotaxic u-frame assembly allowing the lower jaw (mandible) to move freely. The movement of the lower jaw is recorded through a system of surgical thread, pulleys and a ft. […]
After consistent linguomandibular responses are obtained, the test drug (compound of Formula I in free base or pharmaceutically acceptable acid addition salt form) is administered intravenously at a dose of 2-50 mg./kg. body weight and its effect is recorded. […]

[3] = system: carrageenan-induced edema; test: Test E (Acute Carrageenan-Induced Edema), anti-inflammatory; details: Rattus norvegicus, po, 3 h; p.o., rats, one hour prior to carrageenan; edema measured three hours after carrageenan
From the text: as §1
Test E (Acute Carrageenan-Induced Edema): Rats are orally dosed (10-200 mg./kg. body weight) with the test drug (compound of Formula I in free base or pharmaceutically acceptable acid addition salt form) one hour prior to administration of carrageenan; edema is measured three hours subsequent to the carrageenan administration. See Winter, Proc. Soc. Exp. Biol. 111, 544 (1962).

SMILES	ED50 ([1]; ip) [mg/kg]	ED50 ([1]; po) [mg/kg]	ED50 [2] [mg/kg]	ED50 (linguomandibular reflex) [mg/kg]	ED50 [3] [mg/kg]	percent change in rotarod time [1] [%]
Cn1c(-c2ccccc2Cl)cc2ncccc2c1=O [Example 4, 7-(2'-Chlorophenyl)-6-methyl-1,6-naphthyridine-5(6H)-one]	49.3	39.1	1.6	4.6	29	
Cc1ccccc1-c1cc2ncccc2c(=O)n1C [Example 6, 6-Methyl-7-(2'-methylphenyl)-1,6-naphthyridine-5-(6H)-one]	36.8	43.5				
CN(C)c1cccc(-c2cc3ncccc3c(=O)n2C)c1 [Example 8, 7-(3'-Dimethylaminophenyl)-6-methyl-1,6-naphthyridine-5(6H)-one]	141					47.3
Cn1c(-c2ccc(Cl)cc2)cc2ncccc2c1=O [Example 11, 7-(4'-Chlorophenyl)-6-methyl-1,6-naphthyridine-5-(6H)-one]	134					32
